Read-outs that look alike come from different tables or passages of the source.
Columns and labels:
Type in all cases: cell-based
[1] = tested on: NL43-derived HIV-1 carrying the GFP gene; details: p24 ELISA after 4 days; for Actually measured virus inhibitory value (%): alone, MT4 cells
Experimental: MT4 cells (a type of T cell line) were cultured in RPMI supplemented with 10% FBS and 10% antibiotics (penicillin and streptomycin). The cells were subcultured every 2 days in a humidified incubator at 37° C. and 5% CO2 for maintenance.
All viruses used for infection are NL43-derived HIV-1 carrying the GFP gene. The viral gene is recombined with the GFP gene, so that an expression rate of GFP may represent a level of viral infection. In order to identify antiviral efficacy, MT4 cells, which are a human-derived T cell line, were used. The MT4 cells were inoculated into 48-well plates at a density of 1×10^5 cells/well and infected with HIV-1 in an amount corresponding to 0.5 ng of HIV-1 p24. Treatment with mixtures to be tested for efficacy was performed simultaneously with the infection. The mixtures were prepared by mixing AVI-CO-004 with AZT, 3TC, Tenofovir, or FTC, respectively. […] Virus supernatant was collected and cell residues were removed. Then, analysis was performed. The viral production was quantified by p24 ELISA assay.
Specifically, 100,000 MT4 cells were respectively inoculated into 48-well plates and infected with HIV-1 in an amount corresponding to 0.5 ng of HIV-1 p24. Treatment with AVI-CO-004 was performed at indicated concentrations. After 4 days, an amount of viruses produced was quantified by p24 ELISA assay.
(§1) In the present experiment, antiviral efficacy of a mixture of AVI-CO-004 and AZT was identified. First, 100,000 MT4 cells were respectively inoculated into 48-well plates and infected with HIV-1 in an amount corresponding to 0.5 ng of HIV-1 p24. Treatment with a mixture of AVI-CO-004 and AZT was performed at indicated concentrations. After 4 days, an amount of viruses produced was quantified by p24 ELISA assay.
as §1, with “3TC” for “AZT”
as §1, with “TFV” for “AZT”
as §1, with “FTC” for “AZT”

[2] = tested on: NL43-derived HIV-1 carrying the GFP gene; details: alone, MT4 cells, p24 ELISA 3 days after infection
Experimental: Specifically, MT4 cells were inoculated at 1×10^5 cells into 48-well plates and infected with HIV-1 in an amount corresponding to 1 ng of p24. All viruses used for the infection are NL43-derived HIV-1 carrying the GFP gene. Together with the infection, the cells were treated with 0.5 μM, 1 μM, 2.5 μM, or 5 μM of AVI-CO-004 alone. Three days after the infection, a level of viral proliferation was identified by GFP expression using a fluorescence microscope (A of FIG. 6). Virus supernatant was collected and cell residues were removed; and HIV-1 P24 antigen ELISA assay was performed to identify a level of viral production (B of FIG. 6).
First, MT4 cells were inoculated at 1×10^5 cells into 48-well plates and infected with HIV-1 in an amount corresponding to 1 ng of p24. Together with the infection, the cells were treated with AVI-CO-004 at 0.5 μM and 1 μM in combination with 1 nM of AZT (zidovudine) and 0.5 nM of 3TC (lamivudine) fixed as basal therapeutic agents. Three days after the infection, a level of viral proliferation was identified by GFP expression using a fluorescence microscope (A of FIG. 7). Virus supernatant was collected and cell residues were removed; and HIV-1 P24 antigen ELISA assay was performed to identify a level of viral production (B of FIG. 7).
First, MT4 cells were inoculated at 1×10^5 cells into 48-well plates and infected with HIV-1 in an amount corresponding to 1 ng of p24. Together with the infection, the cells were treated with AVI-CO-004 at 0.5 μM, 1 μM, 2.5 μM, and 5 μM in combination with 0.25 μM of TFV and 0.2 μM of FTC fixed as basal therapeutic agents. Three days after the infection, a level of viral proliferation was identified by GFP expression using a fluorescence microscope (A of FIG. 8). Virus supernatant was collected and cell residues were removed; and HIV-1 P24 antigen ELISA assay was performed to identify a level of viral production (B of FIG. 8).

[3] = tested on: NL43-derived HIV-1 carrying the GFP gene; experiment: Reinfectivity of viral particles produced after treatment: healthy MT4 cells reinfected (2.5 ng p24), GFP-positive cells counted by FACS after 48 hours; details: for Decreased reinfectivity (%): alone, reinfection of MT4 cells, FACS
Experimental: In order to identify reinfectivity of viruses produced after treatment with AVI-CO-004 alone, healthy T cells inoculated at 1×10^5 cells into 48-well plates were infected with the same amount (2.5 ng in p24) of purified viral particles produced in infection assay in Example 2. After 48 hours, a level of reinfectivity of the viral particles was identified by GFP expression using a fluorescence microscope. For quantification, GFP-positive cells re-infected with the viruses were counted using a fluorescence activated cell sorter (FACS) and indicated (A of FIG. 9), and the results were graphically represented (B of FIG. 9).
In order to compare reinfectivity of the viruses produced after treatment with AVI-CO-004 alone and after combined treatment with AVI-CO-004/AZT/3TC or AVI-CO-004/TFV/FTC, the purified viral particles produced after the combined treatment in Example 2 and a control which had not been treated with an inhibitor were quantified at the same amount (2.5 ng of p24), and used to reinfect healthy T cells.
First, healthy MT4 cells were inoculated at 1×10^5 cells into 48-well plates and infected with the same amount (2.5 ng in p24) of purified viral particles produced in infection assay in Example 2. After 48 hours, a level of reinfectivity of the viruses was identified by GFP expression using a fluorescence microscope. For quantification, GFP-positive cells re-infected with the viruses were counted using a fluorescence activated cell sorter (FACS) and indicated, and the results were graphically represented (FIGS. 10 and 11).

## Nc1ccn([C@@H]2CS[C@H](CO)O2)c(=O)n1 [3TC, 2′-3′-dideoxy-3′-thiacytidine]
[1]; amount used 1 nM
  Actually measured virus inhibitory value (%): 25%

## O=C(O)CCN1C(=O)/C(=C/c2ccc(-c3ccc(Cl)cc3)o2)SC1=S [AVI-CO-004, 3-{5-[5-(4-chloro-phenyl)-furan-2-ylmethylene]-4-oxo-2-thioxo-thiazolidin-3-yl}-propionic acid]
[2]; amount used 0.5 μM
  Actually measured virus inhibitory value (%): 14.4%
[2]; amount used 1 μM
  Actually measured virus inhibitory value (%): 44%
[2]; amount used 2.5 μM
  Actually measured virus inhibitory value (%): 61.2%
[2]; amount used 5 μM
  Actually measured virus inhibitory value (%): 76.3%
[1]; amount used 2.5 μM
  Actually measured virus inhibitory value (%): 12%
[1]; amount used 5 μM
  Actually measured virus inhibitory value (%): 40%
[1]; treatment alone at increasing concentrations, p<0.05
  antiviral effect (amount of viruses produced): concentration-dependent antiviral effect
[3]; treatment alone, reinfection of healthy cells
  reinfectivity of viruses produced after treatment, compared with a control: significantly decreased reinfectivity
[3]; viruses produced under 0.5 μM
  Decreased reinfectivity (%): 35.8%
[3]; viruses produced under 1 μM
  Decreased reinfectivity (%): 65.3%
[3]; viruses produced under 2.5 μM
  Decreased reinfectivity (%): 97.5%
[3]; viruses produced under 5 μM
  Decreased reinfectivity (%): 97.5%

## Cc1cn([C@H]2C[C@H](N=[N+]=[N-])[C@@H](CO)O2)c(=O)[nH]c1=O [AZT, 3′-azido-3′-deoxythymidine]
[1]; amount used 1 nM
  Actually measured virus inhibitory value (%): 9%

## Nc1nc(=O)n([C@@H]2CS[C@H](CO)O2)cc1F [FTC]
[1]; amount used 5 nM
  Actually measured virus inhibitory value (%): 19%

## C[C@H](Cn1cnc2c(N)ncnc21)OCP(=O)(O)O [TFV, tenofovir]
[1]; amount used 0.25 μM
  Actually measured virus inhibitory value (%): 30%
